# Where two headings read alike, the source gives them in different places.
# What was measured:
# [1] = test system: rat microsomal cytochrome P450s; assay: in vitro; details: microsomes, pH 7.4, inhibition of melatonin O-demethylation (NAS formation)
# [2] = test system: mitochondrial cytochrome P450s; assay: in vitro; details: rat, pH 7.4, inhibition of melatonin O-demethylation (NAS formation)
# [3] = test system: rat liver postmitochondrial supernatant; details: cited from earlier work
# human liver microsomes = details: cited from earlier work
# NADH oxidase = details: isolated rat liver mitochondria; cited from earlier work
# [4] = test system: rat microsomal cytochrome P450s; details: microsomes
# [5] = test system: mitochondrial cytochrome P450s; details: mitochondria
# CYP1A2 = details: liver slices and microsomes of treated rats; cited from earlier work
# [6] = 6-HMel formation from melatonin
structure (smiles),measurement,setting,value
"CCN(CC)C(=S)S [Diethyldihydrocarbamate, diethyldithiocarbamate]","inhibition at 60 min, 50 μM",[1],38%
same,"inhibition at 60 min, 50 μM",[2],74%
"Cc1nc2c([nH]1)c(=O)n(C)c(=O)n2Cc1ccco1 [Furafylline, furafylline]","inhibition at 60 min, 20 μM",[1],27%
same,"inhibition at 60 min, 20 μM",[2],63%
same,inhibition of the conversion of melatonin to 6-sulphatoxymelatonin,[3],inhibited markedly
"CC(=O)N1CCN(c2ccc(OCC3COC(Cn4ccnc4)(c4ccc(Cl)cc4Cl)O3)cc2)CC1 (stereo not shown) [Ketoconazole, ketoconazole]","inhibition at 60 min, 5 μM",[1],52%
same,inhibition of melatonin metabolism,human liver microsomes,only weak inhibitors
same,inhibition of NADH oxidase,NADH oxidase,dose-dependent inhibition
same,"inhibition at 60 min, 5 μM",[2],49%
"COc1ccc2[nH]c([S+]([O-])Cc3ncc(C)c(OC)c3C)nc2c1 (stereo not shown) [Omeprazole, omeprazole]","inhibition at 60 min, 100 μM",[1],78%
same,"inhibition at 60 min, 100 μM",[2],81%
"C=C[C@H]1C[N@@]2CC[C@H]1C[C@@H]2[C@@H](O)c1ccnc2ccc(OC)cc12 [Quinidine, quinidine]","inhibition at 60 min, 5 μM",[1],38%
same,inhibition of melatonin metabolism,human liver microsomes,only weak inhibitors
same,"inhibition at 60 min, 5 μM",[2],33%
"COc1ccc2[nH]cc(CCNC(C)=O)c2c1 [melatonin, N-acetyl-5-methoxytryptamine]",Km1 (high affinity component),[4]; [6],48.33 ± 9.17 µM
same,Km2 (low affinity component),[4]; [6],496.8 ± 53.78 µM
same,Km1 (high affinity component),[4]; NAS formation from melatonin,25.86 ± 1.39 µM
same,Km2 (low affinity component),[4]; NAS formation from melatonin,953.3 ± 85.95 µM
same,Km2 (low affinity component),[5]; [6],406.6 ± 19.84 µM
same,Km1 (high affinity component),[5]; NAS formation from melatonin,13.96 ± 2.37 µM
Nc1ccc(S(=O)(=O)Nc2ccnn2-c2ccccc2)cc1 [sulfaphenazole],"inhibition at 60 min, 10 μM",[2],27%
O=c1cc(-c2ccccc2)oc2c1ccc1ccccc12 [α-naphthoflavone],increase in melatonin conversion to 6-sulphatoxymelatonin,CYP1A2,3 fold
